Assay results reported in PubChem BioAssay (NCI).
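Assay format: 96-well plates, 48-hour exposure. GI50 = concentration required for 50% inhibition of growth. TGI is the concentration that stops growth completely.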 Where a SMILES comes first, the peptide text is derived from it. [ ]: non-standard residue; d: D form. The star is where a group is joined. ξ: configuration not given here. 4Abz = Nc1ccc(C(=O)O)cc1; ξL = CC(C)CC(N)C(=O)O; NHOH = ON*

What was measured:
Assay in all cases: NCI anticancer screen, dose series, 48 h
MALME-3M melanoma = tested on: MALME-3M melanoma
U251 CNS = tested on: U251 CNS
T-47D breast = tested on: T-47D breast
HCC-2998 colon = tested on: HCC-2998 colon
NCI-H226 lung = tested on: NCI-H226 lung
OVCAR-5 ovarian = tested on: OVCAR-5 ovarian
HOP-62 NSCLC = tested on: HOP-62 NSCLC
NCI/ADR-RES ovarian = tested on: NCI/ADR-RES ovarian
K-562 leukemia = tested on: K-562 leukemia
NCI-H23 lung = tested on: NCI-H23 lung
SNB-19 CNS = tested on: SNB-19 CNS
HS 578T breast = tested on: HS 578T breast
786-0 renal = tested on: 786-0 renal
COLO 205 colon = tested on: COLO 205 colon
M14 melanoma = tested on: M14 melanoma
NCI-H460 lung = tested on: NCI-H460 lung
EKVX NSCLC = tested on: EKVX NSCLC
SK-MEL-2 melanoma = tested on: SK-MEL-2 melanoma
MDA-MB-435 = tested on: MDA-MB-435
RXF 393 renal = tested on: RXF 393 renal
A549 NSCLC = tested on: A549 NSCLC
OVCAR-4 ovarian = tested on: OVCAR-4 ovarian
SK-MEL-5 melanoma = tested on: SK-MEL-5 melanoma
IGROV1 ovarian = tested on: IGROV1 ovarian
SW-620 colon = tested on: SW-620 colon
HT29 colon = tested on: HT29 colon
KM12 colon = tested on: KM12 colon
CCRF-CEM leukemia = tested on: CCRF-CEM leukemia
TK-10 renal = tested on: TK-10 renal
UACC-257 melanoma = tested on: UACC-257 melanoma
SR leukemia = tested on: SR leukemia
UACC-62 melanoma = tested on: UACC-62 melanoma
LOX IMVI melanoma = tested on: LOX IMVI melanoma
A498 renal = tested on: A498 renal
MOLT-4 leukemia = tested on: MOLT-4 leukemia
MDA-MB-231 breast = tested on: MDA-MB-231 breast
OVCAR-8 ovarian = tested on: OVCAR-8 ovarian
MCF7 breast = tested on: MCF7 breast
NCI-H522 lung = tested on: NCI-H522 lung
HCT-15 colon = tested on: HCT-15 colon
SN12C renal = tested on: SN12C renal
RPMI-8226 leukemia = tested on: RPMI-8226 leukemia
HL-60(TB) leukemia = tested on: HL-60(TB) leukemia
PC-3 prostate = tested on: PC-3 prostate
DU-145 prostate = tested on: DU-145 prostate
UO-31 renal = tested on: UO-31 renal
SK-MEL-28 melanoma = tested on: SK-MEL-28 melanoma
CAKI-1 renal = tested on: CAKI-1 renal
SK-OV-3 ovarian = tested on: SK-OV-3 ovarian
ACHN renal = tested on: ACHN renal
HCT-116 colon = tested on: HCT-116 colon
SF-539 CNS = tested on: SF-539 CNS
OVCAR-3 ovarian = tested on: OVCAR-3 ovarian
SF-295 CNS = tested on: SF-295 CNS
SNB-75 CNS = tested on: SNB-75 CNS
SF-268 CNS = tested on: SF-268 CNS
BT-549 breast = tested on: BT-549 breast

## O=C(CCCCCn1c2ccccc2c2c3c(c4c5ccccc5[nH]c4c21)C(=O)N(O)C3=O)N1CCOCC1
MALME-3M melanoma
  GI50: 2.26 µM
  TGI: 6.34 µM
U251 CNS
  GI50: 2.26 µM
  TGI: 5.59 µM
T-47D breast
  GI50: 2.61 µM
  TGI: 7.89 µM
HCC-2998 colon
  GI50: 1.85 µM
  TGI: 3.54 µM
NCI-H226 lung
  GI50: 2.58 µM
  TGI: 6.51 µM
OVCAR-5 ovarian
  GI50: 3.49 µM
  TGI: > 100 µM
HOP-62 NSCLC
  GI50: 2.77 µM
  TGI: 6.74 µM
NCI/ADR-RES ovarian
  GI50: 5.93 µM
  TGI: > 100 µM
K-562 leukemia
  GI50: 2.11 µM
  TGI: 6.23 µM
NCI-H23 lung
  GI50: 2.11 µM
  TGI: 5.47 µM
SNB-19 CNS
  GI50: 3.05 µM
  TGI: 36.8 µM
HS 578T breast
  GI50: 2.78 µM
  TGI: 7.95 µM
786-0 renal
  GI50: 1.99 µM
  TGI: 4.91 µM
COLO 205 colon
  GI50: 2.3 µM
  TGI: 5.65 µM
M14 melanoma
  GI50: 2.14 µM
  TGI: 5.52 µM
NCI-H460 lung
  GI50: 2.16 µM
  TGI: 4.69 µM
EKVX NSCLC
  GI50: 4.62 µM
  TGI: 43.3 µM
SK-MEL-2 melanoma
  GI50: 2.4 µM
  TGI: 5.47 µM
MDA-MB-435
  GI50: 2.25 µM
  TGI: 5.58 µM
RXF 393 renal
  GI50: 1.81 µM
  TGI: 3.37 µM
A549 NSCLC
  GI50: 4.22 µM
  TGI: 24 µM
OVCAR-4 ovarian
  GI50: 3.57 µM
  TGI: > 100 µM
SK-MEL-5 melanoma
  GI50: 1.64 µM
  TGI: 3.06 µM
IGROV1 ovarian
  GI50: 2.16 µM
  TGI: 4.92 µM
SW-620 colon
  GI50: 2.12 µM
  TGI: 6.02 µM
HT29 colon
  GI50: 2.42 µM
  TGI: 5.88 µM
KM12 colon
  GI50: 2.14 µM
  TGI: 5.03 µM
CCRF-CEM leukemia
  GI50: 1.43 µM
  TGI: 4.93 µM
TK-10 renal
  GI50: 2.03 µM
  TGI: 5.72 µM
UACC-257 melanoma
  GI50: 3.19 µM
  TGI: 7.76 µM
SR leukemia
  GI50: 1.12 µM
  TGI: 5.45 µM
UACC-62 melanoma
  GI50: 2.05 µM
  TGI: 5.4 µM
LOX IMVI melanoma
  GI50: 1.05 µM
  TGI: 2.57 µM
A498 renal
  GI50: 1.29 µM
  TGI: 2.7 µM
MOLT-4 leukemia
  GI50: 1.88 µM
  TGI: 5.36 µM
MDA-MB-231 breast
  GI50: 2.16 µM
  TGI: 5.87 µM
OVCAR-8 ovarian
  GI50: 2.84 µM
  TGI: 7.86 µM
MCF7 breast
  GI50: 1.41 µM
  TGI: > 100 µM
NCI-H522 lung
  GI50: 1.38 µM
  TGI: 3.14 µM
HCT-15 colon
  GI50: 2.67 µM
  TGI: 8.32 µM
SN12C renal
  GI50: 3.37 µM
  TGI: > 100 µM
RPMI-8226 leukemia
  GI50: 1.97 µM
  TGI: 5.43 µM
HL-60(TB) leukemia
  GI50: 2.01 µM
  TGI: 5.45 µM
PC-3 prostate
  GI50: 2.28 µM
  TGI: 6.22 µM
DU-145 prostate
  GI50: 3.12 µM
  TGI: 12.2 µM
UO-31 renal
  GI50: 1.6 µM
  TGI: 4.28 µM
SK-MEL-28 melanoma
  GI50: 2.32 µM
  TGI: 5.4 µM
CAKI-1 renal
  GI50: 2.13 µM
  TGI: 4.81 µM
SK-OV-3 ovarian
  GI50: 2.27 µM
  TGI: 5.81 µM

## CC(C)CC(NC(=O)[C@@H]1CCCN1C(=O)CNC(=O)c1ccc(N)cc1)C(=O)N[C@H](C)C(=O)NO (stereo not given in full) (H-[4Abz]GP[ξL][dA]-{NHOH})
MALME-3M melanoma
  GI50: > 100 µM
  TGI: > 100 µM
U251 CNS
  GI50: > 100 µM
  TGI: > 100 µM
T-47D breast
  GI50: > 100 µM
  TGI: > 100 µM
HCC-2998 colon
  GI50: > 100 µM
  TGI: > 100 µM
NCI-H226 lung
  GI50: > 100 µM
  TGI: > 100 µM
OVCAR-5 ovarian
  GI50: > 100 µM
  TGI: > 100 µM
ACHN renal
  GI50: > 100 µM
  TGI: > 100 µM
HOP-62 NSCLC
  GI50: > 100 µM
  TGI: > 100 µM
NCI/ADR-RES ovarian
  GI50: > 100 µM
  TGI: > 100 µM
K-562 leukemia
  GI50: > 100 µM
  TGI: > 100 µM
NCI-H23 lung
  GI50: > 100 µM
  TGI: > 100 µM
SNB-19 CNS
  GI50: > 100 µM
  TGI: > 100 µM
HS 578T breast
  GI50: > 100 µM
  TGI: > 100 µM
HCT-116 colon
  GI50: > 100 µM
  TGI: > 100 µM
786-0 renal
  GI50: > 100 µM
  TGI: > 100 µM
COLO 205 colon
  GI50: > 100 µM
  TGI: > 100 µM
SF-539 CNS
  GI50: > 100 µM
  TGI: > 100 µM
M14 melanoma
  GI50: > 100 µM
  TGI: > 100 µM
NCI-H460 lung
  GI50: > 100 µM
  TGI: > 100 µM
EKVX NSCLC
  GI50: > 100 µM
  TGI: > 100 µM
SK-MEL-2 melanoma
  GI50: > 100 µM
  TGI: > 100 µM
MDA-MB-435
  GI50: > 100 µM
  TGI: > 100 µM
RXF 393 renal
  GI50: > 100 µM
  TGI: > 100 µM
A549 NSCLC
  GI50: > 100 µM
  TGI: > 100 µM
OVCAR-4 ovarian
  GI50: > 100 µM
  TGI: > 100 µM
SK-MEL-5 melanoma
  GI50: > 100 µM
  TGI: > 100 µM
IGROV1 ovarian
  GI50: > 100 µM
  TGI: > 100 µM
OVCAR-3 ovarian
  GI50: > 100 µM
  TGI: > 100 µM
SW-620 colon
  GI50: > 100 µM
  TGI: > 100 µM
HT29 colon
  GI50: > 100 µM
  TGI: > 100 µM
SF-295 CNS
  GI50: > 100 µM
  TGI: > 100 µM
KM12 colon
  GI50: > 100 µM
  TGI: > 100 µM
TK-10 renal
  GI50: > 100 µM
  TGI: > 100 µM
UACC-257 melanoma
  GI50: > 100 µM
  TGI: > 100 µM
UACC-62 melanoma
  GI50: > 100 µM
  TGI: > 100 µM
LOX IMVI melanoma
  GI50: > 100 µM
  TGI: > 100 µM
MOLT-4 leukemia
  GI50: > 100 µM
  TGI: > 100 µM
MDA-MB-231 breast
  GI50: > 100 µM
  TGI: > 100 µM
OVCAR-8 ovarian
  GI50: > 100 µM
  TGI: > 100 µM
MCF7 breast
  GI50: > 100 µM
  TGI: > 100 µM
NCI-H522 lung
  GI50: > 100 µM
  TGI: > 100 µM
HCT-15 colon
  GI50: > 100 µM
  TGI: > 100 µM
SNB-75 CNS
  GI50: > 100 µM
  TGI: > 100 µM
SF-268 CNS
  GI50: > 100 µM
  TGI: > 100 µM
BT-549 breast
  GI50: > 100 µM
  TGI: > 100 µM
PC-3 prostate
  GI50: > 100 µM
  TGI: > 100 µM
DU-145 prostate
  GI50: > 100 µM
  TGI: > 100 µM
UO-31 renal
  GI50: > 100 µM
  TGI: > 100 µM
SK-MEL-28 melanoma
  GI50: > 100 µM
  TGI: > 100 µM
CAKI-1 renal
  GI50: > 100 µM
  TGI: > 100 µM
SK-OV-3 ovarian
  GI50: > 100 µM
  TGI: > 100 µM
